Experimental data reported in patent US7901893B2, “NPC1L1 (NPC3) and methods of identifying ligands thereof” (Merck Sharp & Dohme Corp., priority 2004, dated 2011).

Tests used:
[1] = molecular target: T1, rat brush border membrane vesicles (Rattus norvegicus, UniProt Q6T3U3); experiment: Binding assay with rat brush border membrane vesicles
T1 construct: from tissue; host or cells: rat (male Sprague-Dawley) small-intestinal mucosa, brush border membrane vesicles
Source text: Glass fiber filters (GF/C) were obtained from Whatman.
Rate constants for binding and dissociation.
(§1) Analog structures are defined in Table 12.

human NPC1L1 = molecular target: T2, human NPC1L1 (Homo sapiens, UniProt Q9UHC9, G1187D/M616T/T1073A); experiment: Binding to membranes of HEK-293 cells expressing recombinant human NPC1L1; design: expressed in transfected cells; host or cells: HEK-293 cells (ATCC), transient, pCR3.1; membranes; conditions: 0.03% sodium taurocholate and 0.05% digitonin; 1.25 mg protein/ml, 100 nM 1
T2 sequence (Q9UHC9 22-1332 isoform Q9UHC9-2 M616T/T1046A/G1160D limits assumed): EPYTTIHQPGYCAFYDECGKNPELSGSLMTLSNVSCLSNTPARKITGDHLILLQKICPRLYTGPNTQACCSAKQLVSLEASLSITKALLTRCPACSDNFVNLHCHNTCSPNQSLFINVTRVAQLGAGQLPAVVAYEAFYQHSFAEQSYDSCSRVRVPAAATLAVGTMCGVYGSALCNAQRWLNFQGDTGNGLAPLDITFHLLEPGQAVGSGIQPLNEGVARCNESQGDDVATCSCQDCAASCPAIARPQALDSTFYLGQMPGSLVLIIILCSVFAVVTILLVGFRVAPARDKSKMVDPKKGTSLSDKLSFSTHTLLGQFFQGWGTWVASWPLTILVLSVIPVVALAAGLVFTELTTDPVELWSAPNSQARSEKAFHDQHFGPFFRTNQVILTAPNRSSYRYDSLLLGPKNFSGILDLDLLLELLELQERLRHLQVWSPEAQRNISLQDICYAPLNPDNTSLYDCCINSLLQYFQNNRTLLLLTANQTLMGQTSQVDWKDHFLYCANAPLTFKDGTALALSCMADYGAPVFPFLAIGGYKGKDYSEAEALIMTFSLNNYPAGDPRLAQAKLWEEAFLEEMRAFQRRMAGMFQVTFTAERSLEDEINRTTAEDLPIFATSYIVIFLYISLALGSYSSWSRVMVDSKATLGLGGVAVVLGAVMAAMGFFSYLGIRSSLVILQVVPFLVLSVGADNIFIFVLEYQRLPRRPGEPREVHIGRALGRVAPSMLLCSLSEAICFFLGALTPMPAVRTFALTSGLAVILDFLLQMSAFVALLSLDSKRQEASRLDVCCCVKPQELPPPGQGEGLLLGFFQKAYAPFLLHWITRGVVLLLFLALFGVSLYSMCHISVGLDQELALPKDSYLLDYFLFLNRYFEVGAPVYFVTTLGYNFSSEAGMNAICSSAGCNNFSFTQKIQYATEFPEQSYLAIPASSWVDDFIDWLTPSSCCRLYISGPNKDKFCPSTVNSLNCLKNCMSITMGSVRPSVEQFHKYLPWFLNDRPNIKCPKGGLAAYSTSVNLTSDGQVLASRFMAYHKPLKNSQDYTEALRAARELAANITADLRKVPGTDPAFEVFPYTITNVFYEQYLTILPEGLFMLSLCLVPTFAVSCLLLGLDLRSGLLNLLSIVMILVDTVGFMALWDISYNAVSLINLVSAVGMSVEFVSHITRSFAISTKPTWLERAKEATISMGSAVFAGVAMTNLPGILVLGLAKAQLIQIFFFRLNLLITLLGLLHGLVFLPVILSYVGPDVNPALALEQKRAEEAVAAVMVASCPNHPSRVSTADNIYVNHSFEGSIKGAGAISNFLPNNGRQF
Procedure: (§2) Transient expression of NPC1L1. Plasmid pCR3.1 expressing rat NPC1L1 (Genbank AY437867) or human NPC1L1 (Genbank AY437865) were prepared using standard molecular biology protocols. HEK-293 cells (ATCC) were seeded at 10×10^6 cells per T-225 flask (Corning) in DMEM containing 10% fetal calf serum, 4.5 g/L D-glucose and L-glutamine, 18 hours prior to transfection. They were transiently transfected with 25 μg of DNA using Fugene transfection reagent (Roche Biochemical) at a ratio of 6:1 Fugene:DNA. Following transfection, the cells were incubated at 37° C. and 5% CO2 for 48 hours, and then harvested using PBS based cell dissociation buffer (Gibco), pelleted at 500×g, snap frozen on dry ice, and stored at −80° C.
(§3) Membrane preparation from HEK-293 cells. Membranes were prepared by resuspending the frozen cell pellets in ten volumes of 20 mM HEPES/Tris buffer at pH 7.40 containing 8% sucrose, and sonicating the suspensions with a probe sonicator on ice until most of the cells were lysed. To isolate the membranes, the sonicates were centrifuged at 1600×g for 10 min to remove cell debris, and then the supernatants were centrifuged at 125,000×g for 1 hour to recover the membranes. These membranes were resuspended in 20 mM HEPES/Tris buffer at pH 7.40 containing 160 mM NaCl and 5% glycerol, and stored at 10-20 mg/ml protein at −80° C.
as §1

rat NPC1L1 = rat NPC1L1 (Rattus norvegicus, UniProt Q6T3U3); experiment: Binding to membranes of HEK-293 cells expressing recombinant rat NPC1L1; design: expressed in transfected cells; host or cells: HEK-293 cells (ATCC), transient, pCR3.1; membranes; conditions: 0.03% sodium taurocholate and 0.05% digitonin; 1.25 mg protein/ml, 100 nM 1
Procedure: as §2, §3, §1

[2] = molecular target: T3, rhesus brush border membrane vesicles (Macaca mulatta, UniProt A0MJA5); experiment: Binding assay with rhesus brush border membrane vesicles
T3 sequence (A0MJA5 1-1332): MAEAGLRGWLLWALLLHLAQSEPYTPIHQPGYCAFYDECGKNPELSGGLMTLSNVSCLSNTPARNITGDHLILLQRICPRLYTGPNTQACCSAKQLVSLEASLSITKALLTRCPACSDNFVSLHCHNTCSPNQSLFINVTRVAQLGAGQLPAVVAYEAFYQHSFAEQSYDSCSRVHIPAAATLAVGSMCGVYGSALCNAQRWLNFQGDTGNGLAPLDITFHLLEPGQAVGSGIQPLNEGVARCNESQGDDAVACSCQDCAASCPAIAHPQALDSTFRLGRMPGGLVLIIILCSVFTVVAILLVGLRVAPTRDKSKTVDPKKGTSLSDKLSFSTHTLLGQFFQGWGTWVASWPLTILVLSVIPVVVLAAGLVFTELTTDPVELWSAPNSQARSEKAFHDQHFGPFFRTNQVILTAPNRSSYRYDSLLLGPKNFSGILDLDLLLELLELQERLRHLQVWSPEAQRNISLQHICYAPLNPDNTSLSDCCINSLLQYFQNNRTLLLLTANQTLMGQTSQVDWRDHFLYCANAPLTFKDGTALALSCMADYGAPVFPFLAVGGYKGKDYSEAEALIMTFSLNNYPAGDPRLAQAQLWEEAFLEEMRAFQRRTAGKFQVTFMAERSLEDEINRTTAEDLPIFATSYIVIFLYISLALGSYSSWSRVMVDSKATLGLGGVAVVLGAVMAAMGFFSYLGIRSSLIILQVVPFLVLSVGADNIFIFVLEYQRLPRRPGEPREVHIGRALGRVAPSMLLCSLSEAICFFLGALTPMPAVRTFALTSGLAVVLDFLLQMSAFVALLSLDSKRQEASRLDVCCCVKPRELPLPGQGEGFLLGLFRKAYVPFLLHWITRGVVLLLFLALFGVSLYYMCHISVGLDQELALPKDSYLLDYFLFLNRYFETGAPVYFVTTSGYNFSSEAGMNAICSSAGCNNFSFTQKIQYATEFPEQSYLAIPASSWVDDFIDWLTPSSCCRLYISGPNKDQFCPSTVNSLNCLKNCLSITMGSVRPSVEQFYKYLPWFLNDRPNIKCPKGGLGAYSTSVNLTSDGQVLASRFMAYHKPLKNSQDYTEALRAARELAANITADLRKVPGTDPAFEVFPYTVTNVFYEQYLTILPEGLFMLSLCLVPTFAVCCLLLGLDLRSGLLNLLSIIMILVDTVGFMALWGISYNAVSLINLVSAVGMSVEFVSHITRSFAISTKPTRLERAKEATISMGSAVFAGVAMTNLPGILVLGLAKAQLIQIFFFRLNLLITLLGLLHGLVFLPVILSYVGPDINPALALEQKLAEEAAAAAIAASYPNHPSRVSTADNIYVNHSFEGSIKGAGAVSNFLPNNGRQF
Procedure: The intestines from freshly sacrificed animals were cut into segments, perfused with ice-cold saline buffer (Buffer A: 26 mM NaHCO3, 0.96 mM NaH2PO4, 5 mM HEPES, 5.5 mM glucose, 117 mM NaCl, 5.4 mM KCl, pH=7.4), placed on cold glass plates, opened longitudinally, and the mucosa scraped with glass microscope slips. This mucosa could be used fresh or frozen with identical results. To prepare the membranes, the mucosal scrapings were resuspended in 20 volumes of cold buffer consisting of 300 mM D-mannitol, 5 mM EGTA, 12 mM Tris, pH 7.4 with HCl, and containing 0.1 mM PMSF and a 1% dilution of a protease inhibitor cocktail (set 1, Calbiochem). They were homogenized using a Polytron at medium speed on ice until inspection with a microscope indicated complete cell lysis. Then, solid MgCl2 was added slowly with stirring to a final concentration of 10 mM, and the solution was kept stirring on ice for 15 min. Cellular debris was removed by centrifugation for 15 min at 3,000 g, and the membranes were recovered by centrifugation for 60 min at 48,000 g. The membranes were further rinsed by re-suspension in a buffer containing 50 mM D-mannitol, 5 mM EGTA, and 2 mM Tris at pH 7.40, and centrifugation for 60 min at 48,000 g. The final pellet was resuspended in 120 mM NaCl and 20 mM Tris at pH 7.40 to a concentration of ˜10-20 mg protein/ml, aliquoted, frozen in liquid nitrogen, and stored at −80 C. The activity was stable indefinitely and could be freeze-thawed with minimal loss of activity.
Binding assay. Assays were conducted in 12×75 mm glass test tubes and total volume 20-100 ul. In general, frozen membranes were diluted in buffer A or buffer A containing 0.03% taurocholate and 0.05% digitonin to a final concentration of 0.02 to 5 mg/ml. […] Competing ligands were likewise added as DMSO solutions to give a total 2-10% organic solvent content. […] At least 2 components of buffer A, the bicarbonate and phosphate salts, were later found to be inconsequential and were routinely omitted.
Bound ligand was quantified by single-tube vacuum filtration using GF/C glass fiber filters. […] Filtration was accomplished by adding 2.5 ml of ice cold buffer (120 mM NaCl, 0.1% sodium cholate, and 20 mM MES at pH 6.70) to the assay tube, pouring the mixture through the filter, and then rinsing the tube and filter twice more with another 2×2.5 ml buffer. The filters were counted in 7 ml vials using Packard DM liquid scintillation fluid.
Data analysis. Data from saturation experiments were subjected to a Scatchard analysis, and linear regression was performed to yield the equilibrium dissociation constant (Kd) and maximum receptor concentration (Bmax). […] Data from competition experiments were analyzed and IC50 values determined from Hill plots of the binding data.

## O=C(O)[C@H]1O[C@@H](Oc2ccc([C@@H]3[C@@H](CC[C@H](O)c4ccc(F)cc4)C(=O)N3c3ccc(F)cc3)c(O)c2)[C@H](O)[C@@H](O)[C@@H]1O [Compound 7]
[1]; 0.03% sodium taurocholate and 0.05% digitonin, 1.25 mg protein/ml, 100 nM 1, read-out: Rat BBM Ki
  Ki: 280 nM
[1]; rat brush border membrane vesicles, read-out: RAT IC50 (nM), inhibition of ^3H-EZE-gluc binding
  IC50: 252 nM
Human NPC1L1
  Ki: 210 nM
Rat NPC1L1
  Ki: 360 nM
[2]
  Ki: 60 nM
